# Measurements taken from ChEMBL document CHEMBL1629662, “Antimicrobial activity of prulifloxacin tested against a worldwide collection of gastroenteritis-producing pathogens, including those causing traveler's diarrhea” (2009).
# Legend:
# Type in all cases: functional
# [1] = test system: Aeromonas hydrophila; assay: Antibacterial activity against Aeromonas hydrophila assessed as percent resistant isolates by broth microdilution method
# [2] = test system: Shigella sp.; assay: Antibacterial activity against Shigella sp. assessed as growth inhibition at 0.016 ug/ml by broth microdilution method
# [3] = test system: Aeromonas sp.; assay: Antibacterial activity against Aeromonas sp. assessed as growth inhibition at 0.12 ug/ml by broth microdilution method
# [4] = test system: Escherichia coli; assay: Antibacterial activity against Escherichia coli assessed as growth inhibition at =<0.002 ug/ml by broth microdilution method
# [5] = test system: Vibrio fluvialis; assay: Antibacterial activity against Vibrio fluvialis assessed as percent susceptible isolates by broth microdilution method
# [6] = test system: Vibrio cholerae; assay: Antibacterial activity against Vibrio cholerae by broth microdilution method
# [7] = test system: Escherichia coli; assay: Antibacterial activity against Escherichia coli by broth microdilution method
# [8] = test system: Vibrio cholerae; assay: Antibacterial activity against Vibrio cholerae assessed as percent resistant isolates by broth microdilution method
# [9] = test system: Shigella boydii; assay: Antibacterial activity against Shigella boydii assessed as percent susceptible isolates by broth microdilution method; conditions: pooled result: one value given for 3 cell lines, strains, targets or settings
# [10] = test system: Shigella sonnei; assay: Antibacterial activity against Shigella sonnei by broth microdilution method
# [11] = test system: Plesiomonas shigelloides; assay: Antibacterial activity against Plesiomonas shigelloides assessed as growth inhibition at =<0.002 ug/ml by broth microdilution method
# [12] = test system: Vibrio sp.; assay: Antibacterial activity against Vibrio sp. assessed as growth inhibition at 0.004 ug/ml by broth microdilution method
# [13] = test system: Shigella dysenteriae; assay: Antibacterial activity against Shigella dysenteriae by broth microdilution method
# [14] = test system: Escherichia coli; assay: Antibacterial activity against enteroaggregative Escherichia coli by broth microdilution method
# [15] = test system: Escherichia coli; assay: Antibacterial activity against blood-borne Escherichia coli assessed as percent susceptible isolates by broth microdilution method
# [16] = test system: Vibrio parahaemolyticus; assay: Antibacterial activity against Vibrio parahaemolyticus by broth microdilution method
# [17] = test system: Aeromonas caviae; assay: Antibacterial activity against Aeromonas caviae assessed as percent resistant isolates by broth microdilution method
# [18] = test system: Salmonella sp.; assay: Antibacterial activity against Salmonella sp. assessed as growth inhibition at =<0.002 ug/ml by broth microdilution method
# [19] = test system: Aeromonas sp.; assay: Antibacterial activity against Aeromonas sp. assessed as growth inhibition at 0.03 ug/ml by broth microdilution method
# [20] = test system: Vibrio vulnificus; assay: Antibacterial activity against Vibrio vulnificus assessed as percent resistant isolates by broth microdilution method
# [21] = test system: Campylobacter sp.; assay: Antibacterial activity against Campylobacter sp. assessed as growth inhibition at 0.25 ug/ml by broth microdilution method
# [22] = test system: Yersinia sp.; assay: Antibacterial activity against Yersinia sp. assessed as growth inhibition at 0.008 ug/ml by broth microdilution method; conditions: Yersinia sp. (in: enterobacteria)
# [23] = test system: Aeromonas sp.; assay: Antibacterial activity against Aeromonas sp. assessed as growth inhibition at 0.016 ug/ml by broth microdilution method
# [24] = test system: Campylobacter sp.; assay: Antibacterial activity against Campylobacter sp. assessed as growth inhibition at 0.12 ug/ml by broth microdilution method
# [25] = test system: Plesiomonas shigelloides; assay: Antibacterial activity against Plesiomonas shigelloides by broth microdilution method
# [26] = test system: Salmonella sp.; assay: Antibacterial activity against Salmonella sp. assessed as growth inhibition at 0.06 ug/ml by broth microdilution method
# [27] = test system: Vibrio parahaemolyticus; assay: Antibacterial activity against Vibrio parahaemolyticus assessed as percent resistant isolates by broth microdilution method
# [28] = test system: Shigella dysenteriae; assay: Antibacterial activity against Shigella dysenteriae assessed as percent susceptible isolates by broth microdilution method
# [29] = test system: Aeromonas sp.; assay: Antibacterial activity against Aeromonas sp. assessed as growth inhibition at 2 ug/ml by broth microdilution method
# [30] = test system: Vibrio cholerae; assay: Antibacterial activity against Vibrio cholerae assessed as percent susceptible isolates by broth microdilution method
# [31] = test system: Escherichia coli; assay: Antibacterial activity against Escherichia coli by broth microdilution method in presence of sulfamethoxazolee
# [32] = test system: Escherichia coli; assay: Antibacterial activity against blood-borne Escherichia coli by broth microdilution method
# [33] = test system: Aeromonas caviae; assay: Antibacterial activity against Aeromonas caviae by broth microdilution method
# [34] = test system: Yersinia sp.; assay: Antibacterial activity against Yersinia sp. assessed as growth inhibition at =<0.002 ug/ml by broth microdilution method
# [35] = test system: Campylobacter sp.; assay: Antibacterial activity against Campylobacter sp. assessed as growth inhibition at 0.004 ug/ml by broth microdilution method
# [36] = test system: Campylobacter sp.; assay: Antibacterial activity against Campylobacter sp. assessed as growth inhibition at 2 ug/ml by broth microdilution method
# [37] = test system: Shigella sp.; assay: Antibacterial activity against Shigella sp. assessed as growth inhibition at 0.06 ug/ml by broth microdilution method
# [38] = test system: Escherichia coli; assay: Antibacterial activity against enteroaggregative Escherichia coli assessed as percent susceptible isolates by broth microdilution method
# [39] = test system: Aeromonas sp.; assay: Antibacterial activity against Aeromonas sp. assessed as growth inhibition at 0.004 ug/ml by broth microdilution method
# [40] = test system: Yersinia sp.; assay: Antibacterial activity against Yersinia sp. assessed as growth inhibition at 0.06 ug/ml by broth microdilution method; conditions: Yersinia sp. (in: enterobacteria)
# [41] = test system: Aeromonas caviae; assay: Antibacterial activity against Aeromonas caviae assessed as percent susceptible isolates by broth microdilution method
# [42] = test system: Vibrio alginolyticus; assay: Antibacterial activity against Vibrio alginolyticus assessed as percent susceptible isolates by broth microdilution method
# [43] = test system: Escherichia coli; assay: microbe, parasite or virus in culture
# [44] = test system: Escherichia coli; assay: Antibacterial activity against enteropathogenic Escherichia coli assessed as percent resistant isolates by broth microdilution method
# [45] = test system: Campylobacter sp.; assay: Antibacterial activity against Campylobacter sp. assessed as growth inhibition at 0.008 ug/ml by broth microdilution method
# [46] = test system: Escherichia coli; assay: Antibacterial activity against enteropathogenic Escherichia coli by broth microdilution method
# [47] = test system: Aeromonas sobria; assay: Antibacterial activity against Aeromonas sobria by broth microdilution method
# [48] = test system: Yersinia sp.; assay: Antibacterial activity against Yersinia sp. assessed as growth inhibition at 0.004 ug/ml by broth microdilution method; conditions: Yersinia sp. (in: enterobacteria)
# [49] = test system: Yersinia sp.; assay: Antibacterial activity against Yersinia sp. assessed as growth inhibition at 0.12 ug/ml by broth microdilution method; conditions: Yersinia sp. (in: enterobacteria)
# [50] = test system: Campylobacter sp.; assay: Antibacterial activity against Campylobacter sp. assessed as growth inhibition at 0.03 ug/ml by broth microdilution method
# [51] = Escherichia coli, read-out: MIC50
# [52] = Escherichia coli, read-out: MIC90
compound,measurement,setting,value
CC1Sc2c(C(=O)O)c(=O)c3cc(F)c(N4CCNCC4)cc3n21 (stereo not drawn) [ULIFLOXACIN],Activity,[1],2%
same,inhibition at 0.016 µg/mL,[2],96%
same,inhibition at 0.12 µg/mL,[3],93%
same,inhibition (INH),[4],0%
same,Activity,[5],100%
same,MIC50,[6],16 ng/mL
same,MIC90,[6],30 ng/mL
same,MIC50,[7],8 ng/mL
same,MIC90,[7],8 ng/mL
same,Activity,[8],0%
same,Activity,[9],100%
same,MIC50,[10],4 ng/mL
same,MIC90,[10],8 ng/mL
same,inhibition (INH),[11],0%
same,inhibition at 0.004 µg/mL,[12],35%
same,MIC50,[13],4 ng/mL
same,MIC90,[13],8 ng/mL
same,MIC,[14],4 ng/mL
same,MIC50,[14],4 ng/mL
same,MIC90,[14],8 ng/mL
same,MIC,"[14]; Escherichia coli, read-out: MIC",4 ng/mL
same,MIC50,[14]; [51],4 ng/mL
same,MIC90,[14]; [52],8 ng/mL
same,Activity,[15],90%
same,MIC50,[16],16 ng/mL
same,MIC90,[16],30 ng/mL
same,Activity,[17],2%
same,inhibition (INH),[18],1%
same,inhibition at 0.03 µg/mL,[19],87%
same,Activity,[20],0%
same,inhibition at 0.25 µg/mL,[21],83%
same,inhibition at 0.008 µg/mL,[22],56%
same,inhibition at 0.016 µg/mL,[23],78%
same,inhibition at 0.12 µg/mL,[24],82%
same,MIC,[25],4 ng/mL
same,MIC50,[25],4 ng/mL
same,inhibition at 0.06 µg/mL,[26],97%
same,Activity,[27],0%
same,Activity,[28],100%
same,inhibition at 2 µg/mL,[29],98%
same,Activity,[30],100%
same,Activity,[31],4.8%
same,MIC50,[32],8 ng/mL
same,MIC90,[32],60 ng/mL
same,MIC50,[32]; [51],8 ng/mL
same,MIC90,[32]; [52],60 ng/mL
same,MIC50,[33],4 ng/mL
same,MIC90,[33],60 ng/mL
same,inhibition (INH),[34],0%
same,inhibition at 0.004 µg/mL,[35],0%
same,inhibition at 2 µg/mL,[36],85%
same,inhibition at 0.06 µg/mL,[37],99%
same,Activity,[38],100%
same,inhibition at 0.004 µg/mL,[39],55%
same,inhibition at 0.06 µg/mL,[40],98%
same,Activity,[41],98%
same,Activity,[42],100%
same,MIC50,[43],8 ng/mL
same,MIC90,[43],8 ng/mL
same,MIC50,[43]; [51],8 ng/mL
same,MIC90,[43]; [52],8 ng/mL
same,Activity,[44],0%
same,inhibition at 0.008 µg/mL,[45],2%
same,MIC,[46],4 ng/mL
same,MIC50,[46],8 ng/mL
same,MIC90,[46],8 ng/mL
same,MIC50,[46]; [51],8 ng/mL
same,MIC90,[46]; [52],8 ng/mL
same,MIC50,[47],4 ng/mL
same,MIC90,[47],60 ng/mL
same,inhibition at 0.004 µg/mL,[48],0%
same,inhibition at 0.12 µg/mL,[49],100%
same,inhibition at 0.03 µg/mL,[50],61%
